Assay results as given in patent EP2853565A1, “Glutamate receptor photomodulators” (Consejo Superior De Investigaciones Científicas, priority 2013, dated 2015).
pIC50: −log10 of the molar value.

Experiments:
[1] = biological target: T1, rat mGlu5 receptor (Rattus norvegicus, UniProt P31424); experiment: IP1 accumulation (IP-One HTRF) in transiently transfected HEK293 cells; format: cell-based; settings: IP1 production, HEK293 cells with rat mGlu5 and EAAC1, 30 min incubation, 100 nM Quisqualate
T1 construct: expressed in transfected cells; host or cells: HEK293 cells (EAAC1 glutamate transporter cotransfected)
Procedure: Pharmacological experiments on mGlu receptors were performed in HEK293 cells cultured in Dulbecco's modified Eagle's medium (GIBCO-BRL Life Technologies Inc., Cergy Pontoise, France) supplemented with 10% fetal calf serum (FCS, GIBCO-BRL Life Technologies., Cergy Pontoise, France). The compounds were tested on a rat mGlu5 receptor, which was transiently transfected in HEK293 cells by electroporation as described elsewhere [Neuropharmacology 1998, 37, 1043-1051]. Additionally, a plasmid encoding the high-affinity glutamate transporter EAAC1 was cotransfected to prevent the influence of the glutamate released by the cells in the medium. Receptor activity is monitored by measurement of IP1 production using the kit IP-One HTRF® Assay from Cisbio Bioassays (France). For IP1 accumulation measurements, cells were seeded after transfection in polyornithine-coated, black-walled 96-well Polystyrene Cell Culture Microplates (Greiner Bio-One SAS, France) and cultured for 24 h in glutamate/glutamine-free medium (GIBCO-BRL Life Technologies Inc., Cergy Pontoise, France) and antibiotics (penicillin and streptomycin, 100 UmL_1 final, GIBCO-BRL Life Technologies). Media was removed and cells were incubated for 30min in a solution containing the drugs at the tested concentrations. The IP-One stimulation buffer, provided with the kit IP-One (Cisbio Bioassays, France), contains lithium chloride (LiCl) at 50mM that inhibits the degradation of IP1 to Myo-inositol, which is then accumulated in the cell. HTRF reagents, monoclonal antibody specific to IP1 labelled with terbium cryptate and IP1 coupled with the dye d2, diluted in a Lysis buffer were added. After 1 hour of incubation, time resolved fluorescence at 620nm and 665nm was measured with RUBYstar (BMG Labtech, Germany). The specific signal, which results from the energy transfer between […], is proportional to the ratio between the fluorescence emitted at 620 nm and 665 nm, and consequently to the concentration of IP1 in the lysate. All points were determined in triplicate. The dose-response curves were fitted using GraphPad Prism software and the following equation: y= [(ymax-ymin)/(1+10^(LogIC50-x))]+ymin, in which IC50 is the concentration of the compound necessary to obtain the half-maximal effect. (10 µM ≤ IC50 < 50 µM +; 2 µM ≤ IC50 < 10 µM ++; 500 nM ≤ IC50 < 2 µM +++; 100 nM ≤ IC50<500 nM ++++; IC50< 100 nM +++++) Table 14.

[2] = biological target: T2, rat metabotropic glutamate receptor 5 (mGlu5) (Rattus norvegicus, UniProt P31424); experiment: Single-cell calcium imaging (Fura-2) of quisqualate-evoked calcium oscillations, with photoisomerization by 390/490 nm light; format: cell-based
T2 construct: expressed in transfected cells; host or cells: HEK tsA201 cells
Procedure: Cell Culture and Transient Transfection: Human embryonic kidney (HEK) tsA201 cells were maintained at 37 °C and humidified atmosphere with 5% CO2; cells were grown in Dulbecco's Modified Eagle's Medium/Nutrient Mixture F-12 Ham (DMEM/F12, 1:1) medium, supplemented with 10% Fetal Bovine Serum (FBS) and antibiotics (1% Penicillin/Streptomycin). Once at confluence, culture flasks were washed twice with PBS and harvested with 300 µl Accutase. Expression of rat mGlu5a was induced by transient transfection of the cDNA-containing plasmid with X-tremeGENE 9 DNA Transfection Reagent. For transfection, cells were seeded at a concentration of 10^6 cells per well on 6-multiwell plates with a final volume of 2ml, and immediately transfected following manufacturer's instructions (100 µl mixture of 3:1 (µl:µg) of X-tremeGENE 9 DNA TR:mGlu5a plasmid in serum-free medium, 20 minutes incubation). About 24h after transfection, HEK tsA201 cells transiently overexpressing mGlu5a were seeded onto 15 mm glass coverslips pre-treated with Poly-L-Lysine to allow cell adhesion. Seeding concentration was maintained between 2/4·10^5 cells to get preconfluent cultures at the time of experiment. Transfected cells were used for single-cell calcium imaging experiments between 48 and 72 hours after transfection.
Single-cell Calcium Imaging: At the time of experiments, glass coverslips were mounted onto the recording chamber, and cells were loaded with the high affinity, ratiometric, intracellular calcium indicator Fura-2 AM; the dye was incubated during 30 minutes at 37°C and 5% CO2, at a final concentration of 10 µM in Ca^2+-free extracellular solution (ES, -Ca^2+). We used a ratiometric calcium sensor in order to avoid bleaching artefacts. Cells were then carefully rinsed with fresh ES, three to four times, before the recording chamber was placed on an inverted fully-motorised digital microscope (iMic 2000, Till Photonics, Gräfelfing, Germany). Images were acquired at room temperature with a UV Apochromat 40x oil objective lens (Olympus, Tokio, Japan). Fura-2 AM was excited consecutively for 10 ms at two different wavelengths (340 and 380 nm) as indicated by the manufacturer (Life Technologies, Paisley, UK) by using a Polychrome V light source (Till Photonics) and a 505 nm dichroic beamsplitter (Chroma Technology, Below Falls, VT, USA); emission at 510 nm was filtered by a D535/40nm emission filter (Chroma Technology) and finally collected by a cooled CCD camera (Interline Transfer IMAGO QE, Till Photonics). The fluorescence measurements (excitation + emission recording) were carried out every 2 seconds, and each measurement takes about 10-50 ms. The 340 and 380 nm images were stored by the TILLvisION imaging software (Till Photonics); the ratio of the emission when the sample was excited at 340 nm and the emission when it was excited at 380 nm was recorded and its mean value was calculated for each cell using the same software. Higher ratios correspond to higher intracellular calcium concentrations.
Agonists and allosteric modulators addition was obtained by carefully pipetting an initial 1:30 dilution of the compound directly into the accessory pool of the recording chamber, obtaining a final dilution of 1:1000 (total DMSO concentration was always lower than 1%). Activation of the agonist was induced in HEK tsA201 mGlu5a transfected cells with the glutamate analogue Quisqualic acid (3 µM). Only evoked, sustained intracellular calcium oscillations were taken into account as consistent cell responses to the application of the agonist; different responses (such as single-peak, peak-and-plateau, etc.), as well as spontaneously oscillating cells, were discarded as unsuitable for calculating the oscillatory frequency.
Solutions and Reagents: The extracellular solution (ES) used for single-cell calcium imaging contained: 140 mM NaCl, 5.4 mM KCI, 1 mM MgCl2, 10 mM HEPES, 10 mM glucose and 2 mM CaCl2 adjusted to pH 7.4 with NaOH. […]

[3] = 3 µM quisqualate, HEK tsA201 cells

T2 sequence (P31424 21-1171 isoform P31424-2 limits assumed): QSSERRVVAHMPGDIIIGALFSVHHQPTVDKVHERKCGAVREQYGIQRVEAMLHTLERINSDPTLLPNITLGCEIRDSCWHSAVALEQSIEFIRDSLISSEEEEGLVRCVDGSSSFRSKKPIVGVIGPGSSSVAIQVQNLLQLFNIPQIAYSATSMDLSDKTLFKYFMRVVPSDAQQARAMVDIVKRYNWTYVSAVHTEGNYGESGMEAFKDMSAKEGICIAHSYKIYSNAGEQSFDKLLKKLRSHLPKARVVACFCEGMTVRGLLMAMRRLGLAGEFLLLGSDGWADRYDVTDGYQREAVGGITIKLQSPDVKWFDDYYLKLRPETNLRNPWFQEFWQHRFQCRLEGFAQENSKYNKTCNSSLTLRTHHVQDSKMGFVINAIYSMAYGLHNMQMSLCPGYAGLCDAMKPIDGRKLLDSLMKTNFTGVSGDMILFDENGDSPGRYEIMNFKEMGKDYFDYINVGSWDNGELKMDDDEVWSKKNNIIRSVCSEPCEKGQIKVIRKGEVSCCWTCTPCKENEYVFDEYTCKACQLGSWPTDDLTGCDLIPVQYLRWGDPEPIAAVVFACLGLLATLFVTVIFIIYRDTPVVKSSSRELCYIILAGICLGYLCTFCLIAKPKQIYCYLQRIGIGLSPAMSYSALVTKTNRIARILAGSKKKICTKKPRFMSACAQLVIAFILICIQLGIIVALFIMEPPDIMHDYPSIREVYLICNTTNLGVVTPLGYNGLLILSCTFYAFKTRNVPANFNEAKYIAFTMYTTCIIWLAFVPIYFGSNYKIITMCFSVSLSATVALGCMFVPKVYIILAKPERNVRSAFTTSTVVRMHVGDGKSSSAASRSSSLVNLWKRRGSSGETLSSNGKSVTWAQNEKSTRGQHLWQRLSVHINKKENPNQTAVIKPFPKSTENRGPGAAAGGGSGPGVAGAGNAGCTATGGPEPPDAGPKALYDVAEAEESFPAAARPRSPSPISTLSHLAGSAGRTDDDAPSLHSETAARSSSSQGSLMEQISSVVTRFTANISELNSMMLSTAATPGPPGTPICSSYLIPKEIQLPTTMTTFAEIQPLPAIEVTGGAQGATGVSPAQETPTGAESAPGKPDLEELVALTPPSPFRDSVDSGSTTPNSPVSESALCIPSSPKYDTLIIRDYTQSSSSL
T1 sequence (P31424 21-1203): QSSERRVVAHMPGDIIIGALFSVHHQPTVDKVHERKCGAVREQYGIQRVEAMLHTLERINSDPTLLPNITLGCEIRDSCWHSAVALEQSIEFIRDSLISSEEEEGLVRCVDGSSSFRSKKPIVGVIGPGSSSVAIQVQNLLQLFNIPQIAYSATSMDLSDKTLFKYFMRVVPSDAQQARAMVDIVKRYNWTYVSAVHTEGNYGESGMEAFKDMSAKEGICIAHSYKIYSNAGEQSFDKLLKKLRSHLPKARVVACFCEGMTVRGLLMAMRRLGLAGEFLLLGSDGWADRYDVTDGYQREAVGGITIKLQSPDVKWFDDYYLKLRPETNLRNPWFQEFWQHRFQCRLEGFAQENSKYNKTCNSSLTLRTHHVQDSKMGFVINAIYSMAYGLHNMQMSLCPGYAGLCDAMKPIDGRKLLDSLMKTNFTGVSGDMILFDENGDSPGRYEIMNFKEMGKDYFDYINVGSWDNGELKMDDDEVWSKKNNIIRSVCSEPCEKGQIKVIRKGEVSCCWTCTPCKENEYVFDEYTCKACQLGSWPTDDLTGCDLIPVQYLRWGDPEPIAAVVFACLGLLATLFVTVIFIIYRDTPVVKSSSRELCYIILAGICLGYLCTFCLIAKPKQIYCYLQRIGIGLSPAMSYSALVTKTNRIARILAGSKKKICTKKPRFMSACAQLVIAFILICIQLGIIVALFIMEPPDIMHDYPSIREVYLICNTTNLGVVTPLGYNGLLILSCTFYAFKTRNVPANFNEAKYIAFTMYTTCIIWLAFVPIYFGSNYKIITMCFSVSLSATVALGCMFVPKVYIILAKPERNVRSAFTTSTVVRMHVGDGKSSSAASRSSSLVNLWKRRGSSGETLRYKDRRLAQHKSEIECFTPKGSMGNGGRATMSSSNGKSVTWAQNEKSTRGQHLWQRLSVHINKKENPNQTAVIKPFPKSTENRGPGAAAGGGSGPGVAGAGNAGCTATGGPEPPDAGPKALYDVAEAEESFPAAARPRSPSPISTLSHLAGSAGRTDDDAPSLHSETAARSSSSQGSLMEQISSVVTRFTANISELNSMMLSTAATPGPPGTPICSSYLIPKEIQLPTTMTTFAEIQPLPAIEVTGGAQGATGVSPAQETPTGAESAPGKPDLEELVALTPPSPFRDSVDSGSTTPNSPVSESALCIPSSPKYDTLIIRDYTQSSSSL

Compound | pIC50 [1] | further results
O=C(Nc1ccccn1)c1ccc(/N=N/c2ccccn2)cc1 [Compound 1s, (E)-N-(Pyridin-2-yl)-4-(pyridin-2-yldiazenyl)benzamide] | 4.30 to 5.00 | –
COc1cc(/N=N/c2ccccn2)ccc1NC(=O)C1CCCCC1 [Compound 1n, (E)-N-(2-Methoxy-4-(pyridin-2-yldiazenyl)phenyl)cyclohexanecarboxamide] | > 7.00 | –
COc1cc(/N=N/c2ccccn2)ccc1NC(=O)c1ccc(C(=O)c2ccccc2)cc1 [Compound 1a, (E)-4-Benzoyl-N-(2-methoxy-4-(pyridin-2-yldiazenyl)phenyl)benzamide] | 5.70 to 6.30 | –
COc1cc(/N=N/c2ccccn2)ccc1N1C(=O)c2ccccc2C1=O [Compound 1j, (E)-2-(2-Methoxy-4-(pyridin-2-yldiazenyl)phenyl)isoindoline-1,3-dione] | 5.00 to 5.70 | –
O=C(Nc1cccc(/N=N/c2ccccn2)c1)c1ccccn1 [Compound 1t, (E)-N-(3-(pyridin-2-yldiazenyl)phenyl)picolinamide] | 4.30 to 5.00 | –
COc1cc(/N=N\c2ccccn2)ccc1NC(=O)c1ccccc1Cl [(Z)-1c, (Z)-2-chloro-N-(2-methoxy-4-(pyridin-2-yldiazenyl)phenyl)benzamide] | – | effect on mGlu5 response (calcium oscillations) [2, 3]: increases this response
COc1cc(/C=C/c2ccccn2)ccc1NC(=O)c1ccccc1Cl [(E)-47, (E)-2-Chloro-N-(2-methoxy-4-(2-(pyridin-2-yl)vinyl)phenyl)benzamide, reference compound] | – | effect on mGlu5 response (calcium oscillations) [2, 3]: blocked the oscillatory responses of quisqualate
COc1cc(NC(=O)c2ccccn2)ccc1/N=N/c1ccccn1 [Compound 1i, (E)-N-(3-Methoxy-4-(pyridin-2-yldiazenyl)phenyl)picolinamide] | 4.30 to 5.00 | –
COc1cc(/N=N/c2ccccn2)ccc1N(C(=O)c1ccccc1)C(=O)c1ccccc1 [Compound 1k, (E)-N-Benzoyl-N-(2-methoxy-4-(pyridin-2-yldiazenyl)phenyl)benzamide] | 5.70 to 6.30 | –
COc1cc(/C=C\c2ccccn2)ccc1NC(=O)c1ccccc1Cl [(Z)-47, (Z)-2-Chloro-N-(2-methoxy-4-(2-(pyridin-2-yl)vinyl)phenyl)benzamide, reference compound] | – | effect on mGlu5 response (calcium oscillations) [2, 3]: inhibits mGlu5 activation
O=C(Nc1ccc(/N=N/c2ccccn2)cc1)c1ccccn1 [Compound 1h, (E)-N-(4-(Pyridin-2-yldiazenyl)phenyl)picolinamide] | 5.00 to 5.70 | –

More lines, main results first:

pIC50 [1] | Compound | further results
> 7.00 | COc1cc(/N=N/c2ccccn2)ccc1NC(=O)C(C)C [Compound 1m, (E)-N-(2-Methoxy-4-(pyridin-2-yldiazenyl)phenyl)isobutyramide] | –
5.00 to 5.70 | N#Cc1cc(/N=N/c2ccccn2)ccc1NC(=O)c1ccccn1 [Compound 1g, (E)-N-(2-Cyano-4-(pyridin-2-yldiazenyl)phenyl)picolinamide] | –
> 7.00 | COc1cc(/N=N/c2ccccn2)ccc1NC(=O)c1ccccc1Cl [Compound 1c, (E)-2-Chloro-N-(2-methoxy-4-(pyridin-2-yldiazenyl)phenyl)benzamide] | oscillatory frequency at 390 nm ([2]; 100 nM compound, 390 nm illumination, compared with quisqualate alone): significantly higher than with quisqualate alone; oscillatory responses to 3 µM quisqualate ([2]; 100 nM compound, in the dark or under 490 nm light): completely blocked; effect on mGlu5 response (calcium oscillations) [2, 3]: inhibit mGlu5 response; light dependence of the activity on mGlu5 ([2]; 3 µM quisqualate, UV (380/390 nm) and visible (500/490 nm) light): could be reversibly switched on and off at 390 nm and 490 nm; pIC50 ([2]; in the dark or under 490 nm light, 3 µM quisqualate, HEK tsA201 cells, read-out: IC50 (inhibitory profile on calcium oscillations)): 7.52
6.30 to 7.00 | COc1cc(/N=N/c2ccccn2)ccc1NC(=O)c1ccccc1 [Compound 1l, (E)-N-(2-Methoxy-4-(pyridin-2-yldiazenyl)phenyl)benzamide] | –
5.70 to 6.30 | COc1cc(/N=N/c2ccccn2)ccc1NC(=O)c1ccncc1 [Compound 1f, (E)-N-(2-Methoxy-4-(pyridin-2-yldiazenyl)phenyl)isonicotinamide] | –
5.70 to 6.30 | COc1cc(/N=N/c2ccccn2)ccc1NC(=O)Nc1ccccc1F [Compound 1o, (E)-1-(2-Fluorophenyl)-3-(2-methoxy-4-(pyridin-2-yldiazenyl)phenyl)urea] | –
5.70 to 6.30 | COc1cc(/N=N/c2ccccn2)ccc1NC(=O)c1ccc(Cl)cc1Cl [Compound 1b, (E)-2,4-Dichloro-N-(2-methoxy-4-(pyridin-2-yldiazenyl)phenyl)benzamide] | –
6.30 to 7.00 | COc1cc(/N=N/c2ccccn2)ccc1NC(=O)c1ccccc1F [Compound 1p, (E)-2-Fluoro-N-(2-methoxy-4-(pyridin-2-yldiazenyl)phenyl)benzamide] | –
6.30 to 7.00 | COc1cc(/N=N/c2ccccn2)ccc1NC(=O)c1cscn1 [Compound 1r, (E)-N-(2-Methoxy-4-(pyridin-2-yldiazenyl)phenyl)thiazole-4-carboxamide] | –
6.30 to 7.00 | COc1cc(/N=N/c2ccccn2)ccc1NC(=O)c1cccnc1 [Compound 1e, (E)-N-(2-Methoxy-4-(pyridin-2-yldiazenyl)phenyl)nicotinamide] | –
6.30 to 7.00 | COc1cc(/N=N/c2ccccn2)ccc1NC(=O)c1ccccn1 [Compound 1d, (E)-N-(2-Methoxy-4-(pyridin-2-yldiazenyl)phenyl)picolinamide] | –
